System: E. coli
Test: Antibiotic susceptibility test of a single living bacterium in whole blood by single-bacterium mass spectrometry (metabolite signal change)
Type: cell-based, Escherichia coli
Conditions: E. coli from whole blood supernatant; 10 μL of 8 mg/mL kanamycin or 10 μL of 2 mg/mL norfloxacin added into 500 μL; 30 min at 37° C.; FIG. 12
Experimental: 1 mL of whole blood was taken and placed in a centrifuge tube, centrifuged at 3000 rpm for 8 min; the blood cell pellet was discarded; 10 μL of 8 mg/mL kanamycin and 10 μL of 2 mg/mL norfloxacin were respectively added into 500 μL of the supernatant containing the bacterium, and incubated with shaking at 37° C. After 30 min of incubation, the supernatant was centrifuged at 10,000 rpm for 8 min; the supernatant was discarded, and the pellet was resuspended in 100 μL of deionized water; the solution containing the bacterium not having been incubated with the antibiotic was used as a reference group, and the same operations as above were performed. […]
10 μL of 100 μM Acridine Orange as a staining agent was added into the solution containing the bacterium obtained in step (1) and step (2) to perform staining for 15 min. […] The resuspended solution containing the bacterium was dropped onto a polylysine slide and leave for 30 minutes to allow the bacterium to be adsorbed and fixed on the polylysine slide, and then the polylysine slide was rinsed with deionized water and dried at room temperature; the location of bacteria was observed under a fluorescence microscope. […]

## CCn1cc(C(=O)O)c(=O)c2cc(F)c(N3CCNCC3)cc21 [norfloxacin]
  change of alanyl-threonine (m/z 191) signal in a single bacterium after incubation with antibiotic: significantly reduced
